The subject of assay [1] is RBC membrane permeability. The assay can be described thus: Effect of 5-HT on cell membrane permeability of healthy RBCs (Example 3). Type of assay: cell-based, human. The procedure:
A sample of whole blood from a healthy volunteer was drawn into ACD anticoagulant. The sample was then treated with 5-HT (900 ng/mL), and cell membrane permeability was evaluated 5 minutes after treatment.

The test system of assay [2] is RBC membrane permeability to water. The assay can be described thus: Cell scan of whole blood contacted with agents (Example 2), Pk0 measured. Format: cell-based, human. The conditions noted are these: for Pk0: whole blood of healthy volunteer in ACD, agent at the concentration listed in Table 1.
Method: A sample of whole blood from a healthy volunteer was drawn into ACD anticoagulant. The unwashed sample was divided into aliquots and was analyzed using the Prior Shine Technology and/or the Provided Cell Scanning Technologies. The following outputs were obtained from the sample:
Using the technologies described herein, a cell-by-cell analysis was converted into a plot of percent change of cell volume vs. osmolality (“Cell Scan Plot”) by converting the individual peak voltage into a cell volume, then calculating a mean volume for an aliquot of cells, and plotting the means to generate the Cell Scan Plot. The percentage change of cell volume at each osmolality is calculated and compared to the mean cell volume of an isotonic cell (e.g., FIG. 1b). On such a plot, Pk0 (see 101) is the osmotic pressure at which the net water flow is zero (i.e., when a cell achieved its maximum volume, i.e., when it is a perfect sphere).
A sample of whole blood from a healthy volunteer was drawn into ACD anticoagulant. Blood samples were divided into aliquots, and each sample was contacted with an agent at concentrations consistent with the agent's in vivo concentration. […] Five minutes after exposure to an agent, the blood sample was evaluated for cell membrane permeability and Pk0 was measured.

Regarding `NCCc1c[nH]c2ccc(O)cc12` [Agent 5-HT, 5-hydroxytryptamine], in assay [1] (5-HT 900 ng/mL, 5 minutes after treatment, normal Pk0 approx. 140 before), the Pk0 after treatment entry is reported as “approx. 110 mOsm/kg”. In assay [1] (FIG. 5, RBCs of normal healthy individual), the “Pk0 shift after contacting with 5-HT” value is on record as “approx. 30 mOsm/kg”. The Pk0 in assay [2] is reported as 110 mOsm/kg. For `C[C@@H]1[C@H](O)[C@@H](C)/C=C/C=C/C=C/C=C/C=C/C=C/C=C/[C@H](O[C@@H]2O[C@H](C)[C@@H](O)[C@H](N)[C@@H]2O)C[C@@H]2O[C@](O)(C[C@@H](O)C[C@@H](O)[C@H](O)CC[C@@H](O)C[C@@H](O)CC(=O)O[C@H]1C)C[C@H](O)[C@H]2C(=O)O` [Amphotericin B], the Pk0 in assay [2] came to 85 mOsm/kg. Turning to `OC[C@H]1O[C@@H](O[C@H]2[C@H](O)[C@@H](O)C(O)O[C@@H]2CO)[C@H](O)[C@@H](O)[C@H]1O` (some centres unmarked) [Lactose], the “Pk0 lowered to” value in assay [2] (after 10 minutes) stood at 100 mOsm/kg.
